“And” between values parts separate entries of the source, which are not always exact repeats. Identical values can stand only once.
Columns and labels:
Type in all cases: cell-based
FKBP12^WT-Nluc = biological target: T1, FKBP12^WT-Nluc (Homo sapiens, UniProt P62942); assay: FKBP12WT-Nluc dual luciferase assay (293FT); conditions: 293FT FKBP12WT-Nluc, 24 h
T1 construct: expressed in transfected cells; host or cells: 293FT
Protocol: (§1) Dual luciferase assays were performed using 293FT FKBP12^WT-Nluc and FKBP12^F36V-Nluc cells. In brief, cells were plated at 2000 cells per well in 20 µL of appropriate media in 384-well white culture plates (Corning), allowed to adhere overnight, and 100 nL of compounds were added using a Janus Workstation pin tool (PerkinElmer) for 24 h at 37 °C. To evaluate Fluc signal, plates were brought to room temperature, 20 µL of Dual-Glo Reagent (Promega) was added for 10 min and luminescence was measured on an Envision 2104 plate reader (PerkinElmer). Subsequently, 20 µL of Dual-Glo Stop & Glo Reagent (Promega) was added for 10 min and luminescence was again measured to capture Nluc signal. DMSO-normalized ratios of Nluc/Fluc signal was analyzed and plotted using GraphPad PRISM v8[6].

[1] = tested on: PATU-8902 LACZ-FKBP12^F36V clone; assay: Antiproliferation, PATU-8902 LACZ-FKBP12F36V clone, 2D-monolayer (CellTiter-Glo)
Protocol: (§2) Cell viability was assayed in 2D-adherent or ultra-low adherent 3D-spheroids using CellTiter-Glo (Promega)[6],[15]. Luminescence was measured on an Envision 2104 plate reader (PerkinElmer) and Fluostar Omega Reader (BMG Labtech) and data was analyzed using GraphPad PRISM v8. Synergy assessments were performed using CellTiter-Glo (Promega) with the following modifications to the protocol described in the ref. [34]. In brief, EWS502 cells were plated at 1000 cells per well in 50 µL of appropriate media in 384-well white culture plates (Corning) allowed to adhere overnight, and 100 nL of compounds were added using a Janus Workstation pin tool (PerkinElmer) for 72 h. Cell viability was measured by addition of 10 µL of CellTiter-glo (Promega), followed by incubation for 15 minutes at room temperature. Luminescence was measured on an Envision 2104 plate reader (PerkinElmer) and data was analyzed using GraphPad PRISM v8.

[2] = tested on: PATU-8902 LACZ-FKBP12^F36V clone; assay: Antiproliferation, PATU-8902 LACZ-FKBP12F36V clone, 3D-spheroid (CellTiter-Glo)
Protocol: as §2

[3] = tested on: PATU-8902 FKBP12^F36V-KRAS^G12V; KRAS^-/- clone; assay: Antiproliferation, PATU-8902 FKBP12F36V-KRASG12V; KRAS-/- clone, 2D-monolayer (CellTiter-Glo)
Protocol: as §2

[4] = tested on: PATU-8902 FKBP12^F36V-KRAS^G12V; KRAS^-/- clone; assay: Antiproliferation, PATU-8902 FKBP12F36V-KRASG12V; KRAS-/- clone, 3D-spheroid (CellTiter-Glo); conditions: FKBP12F36V-KRASG12V, KRAS-/-, 3D-spheroid, replicate values
Protocol: as §2

FKBP12^F36V-Nluc = biological target: T2, FKBP12^F36V-Nluc (Homo sapiens, UniProt P62942, F37V); assay: FKBP12F36V-Nluc dual luciferase assay (293FT); conditions: 293FT FKBP12F36V-Nluc, 24 h
T2 construct: expressed in transfected cells; host or cells: 293FT
Protocol: as §1

[5] = log10[compound] (M) -5.30103, single replicates
[6] = log10[compound] (M) -5.80103, single replicates
[7] = log10[compound] (M) -6.30103, single replicates
[8] = log10[compound] (M) -6.80103, single replicates
[9] = log10[compound] (M) -7.30103, single replicates
[10] = log10[compound] (M) -7.80103, single replicates
[11] = log10[compound] (M) -8.30103, single replicates
[12] = log10[compound] (M) -8.80103, single replicates
[13] = log10[compound] (M) -9.30103, single replicates
[14] = log10[compound] (M) -9.80103, single replicates
[15] = log10[compound] (M) -5.69897, replicate values
[16] = log10[compound] (M) -6.19897, replicate values
[17] = log10[compound] (M) -6.69897, replicate values
[18] = log10[compound] (M) -7.19897, replicate values
[19] = log10[compound] (M) -7.69897, replicate values
[20] = log10[compound] (M) -8.19897, replicate values
[21] = log10[compound] (M) -8.69897, replicate values
[22] = log10[compound] (M) -9.19897, replicate values
[23] = log10[compound] (M) -9.69897, replicate values
[24] = log10[compound] (M) -10.199, replicate values

T2 sequence (P62942 2-108 F37V limits assumed): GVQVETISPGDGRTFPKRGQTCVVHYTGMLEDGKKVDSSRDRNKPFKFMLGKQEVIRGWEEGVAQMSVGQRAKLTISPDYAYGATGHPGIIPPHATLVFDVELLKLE
T1 sequence (P62942 2-108 limits assumed): as the sequence (P62942 2-108 F37V limits assumed) above, with V36F counted along it

DMSO-normalized ratio of Nluc/Fluc signal (FKBP12^F36V-Nluc; [5]): 9.718 and 7.82 and 6.838 and 6.452 | DMSO-normalized ratio of Nluc/Fluc signal (FKBP12^F36V-Nluc; [6]): 7.4356 and 7.1545 and 9.246 and 9.013 | DMSO-normalized ratio of Nluc/Fluc signal (FKBP12^F36V-Nluc; [7]): 8.136 and 6.155 and 6.261 and 6.581 | DMSO-normalized ratio of Nluc/Fluc signal (FKBP12^F36V-Nluc; [8]): 5.707 and 7.548 and 7.612 and 6.01 | DMSO-normalized ratio of Nluc/Fluc signal (FKBP12^F36V-Nluc; [9]): 6.03 and 9.875 and 9.62 and 12.7928
SMILES: CC[C@H](C(=O)N1CCCC[C@H]1C(=O)O[C@H](CCc1ccc(OC)c(OC)c1)c1ccccc1OCC(=O)NCCCCCCCCNc1ccc2c(c1)C(=O)N(C1CCC(=O)NC1=O)C2=O)c1cc(OC)c(OC)c(OC)c1 (stereo partly drawn) [dTAG-47]
DMSO-normalized ratio of Nluc/Fluc signal (FKBP12^WT-Nluc; [5]): 84.1355 and 61.3325 and 70.7772 and 69.8836 | DMSO-normalized ratio of Nluc/Fluc signal (FKBP12^WT-Nluc; [6]): 93.0264 and 83.3041 and 88.6237 and 105.071 | DMSO-normalized ratio of Nluc/Fluc signal (FKBP12^WT-Nluc; [7]): 94.1663 and 90.3102 and 81.5579 and 90.5666 | DMSO-normalized ratio of Nluc/Fluc signal (FKBP12^WT-Nluc; [8]): 110.721 and 121.213 and 82.3107 and 91.0391 | DMSO-normalized ratio of Nluc/Fluc signal (FKBP12^WT-Nluc; [9]): 107.713 and 93.6392 and 128.788 and 92.5578 | DMSO-normalized ratio of Nluc/Fluc signal (FKBP12^WT-Nluc; [10]): 103.034 and 105.226 and 82.6165 and 80.9641 | DMSO-normalized ratio of Nluc/Fluc signal (FKBP12^WT-Nluc; [11]): 109.495 and 103.137 and 100.817 and 113.935 | DMSO-normalized ratio of Nluc/Fluc signal (FKBP12^WT-Nluc; [12]): 108.489 and 81.746 and 104.598 and 105.548 | DMSO-normalized ratio of Nluc/Fluc signal (FKBP12^WT-Nluc; [13]): 150.295 and 133.521 and 111.306 and 119.516 | DMSO-normalized ratio of Nluc/Fluc signal (FKBP12^WT-Nluc; [14]): 91.0985 and 100.837 and 94.8437 and 78.0176 | DMSO-normalized antiproliferation [1, 15]: 66.3552 and 78.983 and 129.177 and 83.2821 | DMSO-normalized antiproliferation [1, 16]: 96.6043 and 136.336 and 78.4431 and 113.952 | DMSO-normalized antiproliferation [1, 17]: 106.502 and 122.166 and 122.162 and 152.939 | DMSO-normalized antiproliferation [1, 18]: 97.4699 and 137.606 and 129.786 and 96.3913 | DMSO-normalized antiproliferation [1, 19]: 105.363 and 127.754 and 134.499 and 162.317 | DMSO-normalized antiproliferation [1, 20]: 108.061 and 166.691 and 180.246 and 124.553 | DMSO-normalized antiproliferation [1, 21]: 122.542 and 158.966 and 101.253 and 156.902 | DMSO-normalized antiproliferation [1, 22]: 124.955 and 178.332 and 114.428 and 108.403 | DMSO-normalized antiproliferation [1, 23]: 90.3511 and 110.898 and 123.983 and 115.732 | DMSO-normalized antiproliferation [1, 24]: 132.189 and 174.913 and 122.829 and 145.695 | DMSO-normalized antiproliferation [2, 15]: 89.4983 and 102.295 and 92.5832 and 113.039 | DMSO-normalized antiproliferation [2, 16]: 114.787 and 91.3098 and 99.5825 and 107.277 | DMSO-normalized antiproliferation [2, 17]: 113.465 and 134.808 and 116.567 and 121.226 | DMSO-normalized antiproliferation [2, 18]: 129.284 and 117.496 and 141.381 and 115.953 | DMSO-normalized antiproliferation [2, 19]: 103.38 and 130.979 and 121.849 and 101.748 | DMSO-normalized antiproliferation [2, 20]: 127.652 and 127.302 and 105.649 and 114.859 | DMSO-normalized antiproliferation [2, 21]: 124.033 and 144.628 and 127.266 and 105.313 | DMSO-normalized antiproliferation [2, 22]: 110.895 and 108.017 and 114.025 and 143 | DMSO-normalized antiproliferation [2, 23]: 107.098 and 111.016 and 108.066 and 105.932 | DMSO-normalized antiproliferation [2, 24]: 102.188 and 109.313 and 104.448 and 106.317 | DMSO-normalized antiproliferation [3, 15]: 6.913 and 6.748 and 7.162 and 6.575 | DMSO-normalized antiproliferation [3, 16]: 6.887 and 6.816 and 9.161 and 7.924 | DMSO-normalized antiproliferation [3, 17]: 8.541 and 7.72 and 7.186 and 7.798 | DMSO-normalized antiproliferation [3, 18]: 7.406 and 10.8399 and 10.8629 and 7.675 | DMSO-normalized antiproliferation [3, 19]: 12.7188 and 13.025 and 10.8965 and 13.2658 | DMSO-normalized antiproliferation [3, 20]: 32.6374 and 45.5784 and 27.329 and 36.3182 | DMSO-normalized antiproliferation [3, 21]: 78.991 and 62.9303 and 95.6226 and 83.1029 | DMSO-normalized antiproliferation [3, 22]: 131.499 and 101.289 and 106.245 and 113.716 | DMSO-normalized antiproliferation [3, 23]: 70.9753 and 109.585 and 109.74 and 110.516 | DMSO-normalized antiproliferation [3, 24]: 108.82 and 120.301 and 99.0114 and 87.8166 | DMSO-normalized antiproliferation ([4]; log10[compound] (M) -5.69897): 10.0402 and 10.6917 and 15.8593 and 10.4467 | DMSO-normalized antiproliferation ([4]; log10[compound] (M) -6.19897): 11.3488 and 8.236 and 4.984 and 9.032 | DMSO-normalized antiproliferation ([4]; log10[compound] (M) -6.69897): 14.7066 and 10.4355 and 16.0487 and 8.1023 | DMSO-normalized antiproliferation ([4]; log10[compound] (M) -7.19897): 11.6773 and 15.954 and 8.269 and 8.1914 | DMSO-normalized antiproliferation ([4]; log10[compound] (M) -7.69897): 15.915 and 11.6328 and 15.6143 and 14.7735 | DMSO-normalized antiproliferation ([4]; log10[compound] (M) -8.19897): 17.2515 and 18.6047 and 14.0328 and 13.4092 | DMSO-normalized antiproliferation ([4]; log10[compound] (M) -8.69897): 38.6293 and 28.3831 and 27.3251 and 20.0636 | DMSO-normalized antiproliferation ([4]; log10[compound] (M) -9.19897): 80.9673 and 68.7721 and 60.1519 and 83.6347 | DMSO-normalized antiproliferation ([4]; log10[compound] (M) -9.69897): 92.188 and 73.717 and 97.9125 and 91.7258 | DMSO-normalized antiproliferation ([4]; log10[compound] (M) -10.199): 111.244 and 86.8032 and 100.63 and 85.0157 | DMSO-normalized ratio of Nluc/Fluc signal (FKBP12^F36V-Nluc; [10]): 18.7955 and 27.4949 and 18.2618 and 15.8294 | DMSO-normalized ratio of Nluc/Fluc signal (FKBP12^F36V-Nluc; [11]): 42.6816 and 38.7415 and 32.3273 and 32.9688 | DMSO-normalized ratio of Nluc/Fluc signal (FKBP12^F36V-Nluc; [12]): 36.5732 and 37.1776 and 61.6483 and 62.7104 | DMSO-normalized ratio of Nluc/Fluc signal (FKBP12^F36V-Nluc; [13]): 80.6958 and 88.3567 and 73.7011 and 76.297 | DMSO-normalized ratio of Nluc/Fluc signal (FKBP12^F36V-Nluc; [14]): 75.9613 and 95.4034 and 80.0547 and 73.0727

From PMC7501296, “Rapid and direct control of target protein levels with VHL-recruiting dTAG molecules” (Nature Communications, 2020)
